Measured values from patent US9737545B2 (MERCK SHARP & DOHME CORP., priority 2013, dated 2017).

Target: T1, wildtype HIV-1 protease (Human immunodeficiency virus type 1 group M subtype B, UniProt P04585)
T1 construct: preincubated with the HIV-1 protease (wild type) enzyme in assay buffer; made in house; host or cells: Escherichia coli
Assay: Assay for Inhibition of Microbial Expressed HIV Protease (Pepcleav)
Format: biochemical
Protocol: Assay for Inhibition of Microbial Expressed HIV Protease (“Pepcleav”)
Studies of the inhibition of the wildtype HIV-1 protease (which was expressed in Escherichia coli) were carried out with a peptide substrate [Val-Ser-Gln-Asn-(βnaphthyl)Ala-Pro-Ile-Val (SEQ ID NO: 1)]. The inhibitor was first preincubated with the HIV-1 protease (wild type) enzyme in assay buffer (50 mM sodium acetate, pH 5.5, 100 mM NaCl, and 0.1% BSA) for 30 minutes at room temperature. Substrate was added to 400 micromolar in a total volume of 20 microliters containing 20 picomolar HIV-1 protease (final) and the reaction was incubated for 1 hour at 30° C. The reaction was quenched with the addition of formic acid and indinavir to 0.012% and 150 nM final concentrations, respectively. The product formation was determined after separation of product and substrate on a Zorbax Eclipse XDB-C18 column connected to an API 4000 mass spectrometer (Applied Biosystems) with multiple reaction monitoring (transitions were 644.5/428.9 and 615.4/422.2 (M1/M3) for product and indinavir respectively). The extent of inhibition of the reaction was determined from the peak area of the products. Analysis of the products, independently synthesized, provided quantitation standards and confirmation of the product composition.

## COC(=O)N[C@H](C(=O)Nc1cnccc1CC[C@@H]1CN[C@H](c2nc3cc(C)c(C)cc3[nH]2)CO1)C(c1ccccc1)c1ccccc1 [Example 32, methyl N-[(1S)-1-benzhydryl-2-[[4-[2-[(2R,5R)-5-(5,6-dimethyl-1H-benzimidazol-2-yl)morpholin-2-yl]ethyl]-3-pyridyl]amino]-2-oxo-ethyl]carbamate]
  IC50: 0.04 nM

## Cc1cc2nc([C@@H]3CO[C@H](CCc4c(F)cncc4NC(=O)C4(Cc5ccccc5Cl)CC4)CN3)[nH]c2cc1C [Example 33]
  IC50: 4.08 nM

## COC(=O)N[C@H](C(=O)Nc1ccccc1CC[C@@H]1CN[C@H](c2nc3c(O)cccc3[nH]2)CO1)C(c1ccccc1)c1ccccc1 [Example 15, methyl N-[(1S)-1-benzhydryl-2-[[2-[2-[(2R,5R)-5-(4-hydroxy-1H-benzimidazol-2-yl)morpholin-2-yl]ethyl]phenyl]amino]-2-oxo-ethyl]carbamate]
  IC50: 0.0559 nM

## COC(=O)N[C@H](C(=O)Nc1ccccc1CC[C@@H]1CN[C@H](c2nc3nccnc3[nH]2)CO1)C(c1ccccc1)c1ccccc1 [Example 21, methyl N-[(1S)-1-benzhydryl-2-[[2-[2-[(2R,5R)-5-(3H-imidazo[4,5-b]pyrazin-2-yl)morpholin-2-yl]ethyl]phenyl]amino]-2-oxo-ethyl]carbamate]
  IC50: 1.68 nM

## COC(=O)N[C@H](C(=O)Nc1cccc(F)c1CC[C@@H]1CN[C@H](c2nc3cc(C)c(C)cc3[nH]2)CO1)C(c1ccccc1)c1ccccc1 [Example 29, N-(2-{2-[(2R,5R)-5-(5,6-dimethyl-1H-benzimidazol-2-yl)morpholin-2-yl]ethyl}-3-fluorophenyl)-Na-(methoxycarbonyl)-b-phenyl-L-phenylalaninamide]
  IC50: 0.0127 nM

## O=C(COc1ccccc1Cl)Nc1cccc(F)c1CC[C@@H]1CN[C@H](c2nc3ccccc3[nH]2)CO1 [Example 103, N-(2-{2-[(2R,5R)-5-(1H-benzimidazol-2-yl)morpholin-2-yl]ethyl}-3-fluorophenyl)-2-(2-chlorophenoxy) acetamide]
  IC50: 31 nM

## COC(=O)N[C@H](C(=O)Nc1cncc(F)c1CC[C@@H]1CN[C@H](c2nc3cc(C)c(C)cc3[nH]2)CO1)C(c1ccccc1)c1ccccc1 [Example 31, methyl N-[(1S)-1-benzhydryl-2-[[4-[2-[(2R,5R)-5-(5,6-dimethyl-1H-benzimidazol-2-yl)morpholin-2-yl]ethyl]-5-fluoro-3-pyridyl]amino]-2-oxo-ethyl]carbamate]
  IC50: 0.00965 nM

## N[C@@H](Cc1ccccc1Cl)C(=O)Nc1cccc(F)c1CC[C@@H]1CN[C@H](c2nc3ccccc3[nH]2)CO1 [Example 102, N-(2-{2-[(2R,5R)-5-(1H-benzimidazol-2-yl)morpholin-2-yl]ethyl}-3-fluorophenyl)-2-chloro-L-phenylalaninamide]
  IC50: 17 nM

## COC(=O)N[C@H](C(=O)Nc1ccccc1CC[C@@H]1CN[C@H](c2nc3c(C)cc(Cl)cc3[nH]2)CO1)C(c1ccccc1)c1ccccc1 [Example 24, methyl N-[(1S)-1-benzhydryl-2-[[2-[2-[(2R,5R)-5-(6-chloro-4-methyl-1H-benzimidazol-2-yl)morpholin-2-yl]ethyl]phenyl]amino]-2-oxo-ethyl]carbamate]
  IC50: 16.3 nM

## COC(=O)N[C@H](C(=O)Nc1ccccc1CC[C@@H]1CN[C@H](c2nnc(-c3ccc(F)cc3)o2)CO1)C(c1ccccc1)c1ccccc1 [Example 79]
  IC50: 59 nM

## COC(=O)N[C@H](C(=O)Nc1ccccc1CC[C@@H]1CN[C@H](c2cc3cc(Cl)ccc3[nH]2)CO1)C(c1ccccc1)c1ccccc1 [Example 57, N-(2-{2-[(2R,5R)-5-(5-chloro-1H-indol-2-yl)morpholin-2-yl]ethyl}phenyl)-Nα-(methoxycarbonyl)-β-phenyl-L-phenylalaninamide]
  IC50: 70.2 nM

## COC(=O)N[C@H](C(=O)Nc1ccccc1CC[C@@H]1CN[C@H](c2[nH]c3ccccc3c2C=[N+](C)C)CO1)C(c1ccccc1)c1ccccc1 [Example 90, N-[(2-{(3R,6R)-6-[2-(2-{[N-(methoxycarbonyl)-β-phenyl-L-phenylalanyl]amino}phenyl)ethyl]morpholin-3-yl}-1H-indol-3-yl)methylidene]-N-methylmethanaminium]
  IC50: 68 nM

## O=C(C[C@H](c1ccccc1)c1ccc(F)cc1)Nc1cncc(F)c1CC[C@@H]1CN[C@H](c2nc3ccccc3[nH]2)CO1 [Example 71, (3R)—N-(4-{2-[(2R,5R)-5-(1H-benzimidazol-2-yl)morpholin-2-yl]ethyl}-5-fluoropyridin-3-yl)-3-(4-fluorophenyl)-3-phenylpropanamide]
  IC50: 0.01 nM

## O=C(C[C@@H](c1ccc(F)cc1)c1ccc(F)cc1F)Nc1cccc(F)c1CC[C@@H]1CN[C@H](c2nc3ccccc3[nH]2)CO1 [Example 98, (3S)-N-(2-{2-[(2R,5R)-5-(1H-benzimidazol-2-yl)morpholin-2-yl]ethyl}-3-fluorophenyl)-3-(2,4-difluorophenyl)-3-(4-fluorophenyl) propanamide]
  IC50: 0.05 nM

## COC(=O)N[C@H](C(=O)Nc1ccccc1CC[C@@H]1CN[C@H](c2nc(C)c(C)[nH]2)CO1)C(c1ccccc1)c1ccccc1 [Example 48, N-(2-{2-[(2R,5R)-5-(4,5-dimethyl-1H-imidazol-2-yl)morpholin-2-yl]ethyl}phenyl)-Nα-(methoxycarbonyl)-β-phenyl-L-phenylalaninamide]
  IC50: 1.81 nM

## COC(=O)N[C@H](C(=O)Nc1ccccc1CC[C@@H]1CN[C@H](c2nnc(Cc3ccccc3)[nH]2)CO1)C(c1ccccc1)c1ccccc1 [Example 81]
  IC50: 2.8 nM

## N[C@H](C(=O)Nc1cncc(F)c1CC[C@@H]1CN[C@H](c2nc3cc(F)c(F)cc3[nH]2)CO1)C(c1ccc(F)cc1)c1ccc(F)cc1 [Example 75, N-(4-{2-[(2R,5R)-5-(5,6-difluoro-1H-benzimidazol-2-yl)morpholin-2-yl]ethyl}-5-fluoropyridin-3-yl)-4-fluoro-β-(4-fluorophenyl)-L-phenylalaninamide]
  IC50: 0.01 nM

## COC(=O)N[C@H](C(=O)Nc1ccccc1CC[C@@H]1CN[C@H](c2cc3ccc(Cl)cc3[nH]2)CO1)C(c1ccccc1)c1ccccc1 [Example 58, N-(2-{2-[(2R,5R)-5-(6-chloro-1H-indol-2-yl)morpholin-2-yl]ethyl}phenyl)-Nα-(methoxycarbonyl)-β-phenyl-L-phenylalaninamide]
  IC50: 76.2 nM

## COC(=O)N[C@H](C(=O)Nc1ccccc1CC[C@@H]1CN[C@H](c2nc3c(F)cccc3[nH]2)CO1)C(c1ccccc1)c1ccccc1 [Example 28, N-(2-{2-[(2R,5R)-5-(4-fluoro-1H-benzimidazol-2-yl)morpholin-2-yl]ethyl}phenyl)-Na-(methoxycarbonyl)-b-phenyl-L-phenylalaninamide]
  IC50: 0.122 nM

## N[C@H](C(=O)Nc1cccc(F)c1OC[C@@H]1CN[C@H](c2nc3ccccc3[nH]2)CO1)C(c1ccccc1)c1ccccc1 [Example 94, N-(2-{[(2S,5R)-5-(1H-benzimidazol-2-yl)morpholin-2-yl]methoxy}-3-fluorophenyl)-β-phenyl-L-phenylalaninamide]
  IC50: 0.22 nM

## COC(=O)N[C@H](C(=O)Nc1ccccc1CC[C@@H]1CN[C@H](c2nc3cccc(C)c3[nH]2)CO1)C(c1ccccc1)c1ccccc1 [Example 3, methyl N-[(1S)-1-benzhydryl-2-[[2-[2-[(2R,5R)-5-(7-methyl-1H-benzimidazol-2-yl)morpholin-2-yl]ethyl]phenyl]amino]-2-oxo-ethyl]carbamate]
  IC50: 0.0639 nM

## COC(=O)N[C@H](C(=O)Nc1ccccc1CC[C@@H]1CN[C@H](c2cnn[nH]2)CO1)C(c1ccccc1)c1ccccc1 [Example 52, Nα-(methoxycarbonyl)-β-phenyl-N-(2-{2-[(2R,5R)-5-(1H-1,2,3-triazol-5-yl)morpholin-2-yl]ethyl}phenyl)-L-phenylalaninamide]
  IC50: 250 nM

## COC(=O)N[C@H](C(=O)Nc1ccccc1CC[C@@H]1CN[C@H](c2nc3cc(F)c(Br)cc3[nH]2)CO1)C(c1ccccc1)c1ccccc1 [Example 20, methyl N-[(1S)-1-benzhydryl-2-[[2-[2-[(2R,5R)-5-(6-bromo-5-fluoro-1H-benzimidazol-2-yl)morpholin-4-ium-2-yl]ethyl]phenyl]amino]-2-oxo-ethyl]carbamate]
  IC50: 0.525 nM

## COC(=O)N[C@H](C(=O)Nc1ccccc1CC[C@@H]1CN[C@H](c2ncon2)CO1)C(c1ccccc1)c1ccccc1 [Example 41, methyl {(1S)-1-(diphenylmethyl)-2-[(2-{2-[(2R,5R)-5-(1,2,4-oxadiazol-3-yl)morpholin-2-yl]ethyl}phenyl)amino]-2-oxoethyl}carbamate]
  IC50: 304 nM

## COC(=O)N[C@H](C(=O)Nc1ccccc1CC[C@@H]1CN[C@H](c2nc3cc(F)c(Cl)cc3[nH]2)CO1)C(c1ccccc1)c1ccccc1 [Example 27, N-(2-{2-[(2R,5R)-5-(6-chloro-5-fluoro-1H-benzimidazol-2-yl)morpholin-2-yl]ethyl}phenyl)-Na-(methoxycarbonyl)-b-phenyl-L-phenylalaninamide]
  IC50: 0.658 nM

## O=C(C[C@@H](c1ccc(F)cc1)c1ccncc1F)Nc1cccc(F)c1CC[C@@H]1CN[C@H](c2nc3ccccc3[nH]2)CO1 [Example 73, (3S)—N-(2-{2-[(2R,5R)-5-(1H-benzimidazol-2-yl)morpholin-2-yl]ethyl}-3-fluorophenyl)-3-(4-fluorophenyl)-3-(3-fluoropyridin-4-yl)propanamide]
  IC50: 0.01 nM

## COC(=O)N[C@H](C(=O)Nc1ccccc1CC[C@@H]1CN[C@H](c2ncc[nH]2)CO1)C(c1ccccc1)c1ccccc1 [Example 42]
  IC50: 2.62 nM
